Our source for the IC50 values is patent US12466803B2 (priority 2021, dated 2025).

Molecules are shown by their SMILES.

This experiment deals with phospho (S293) BCKDHA in human skeletal myocytes. The experiment is described as follows: Phospho BCKDHA Alpha Surefire Cell Assay. Format: cell-based. The note with it: Homo sapiens, 1 h, 60 minutes with compound, geometric mean.
Turning to `O=C(O)c1sc2cc(F)ccc2c1-c1ccc2c(c1)CCCC2` [Example 37, 6-fluoro-3-(5,6,7,8-tetrahydronaphthalen-2-yl)-1-benzothiophene-2-carboxylic acid], the IC50 amounted to 25 µM.
In the case of `Cc1c(Cl)ccc(-c2c(C(=O)O)sc3cc(F)ccc23)c1F` [Example 38, 3-(4-chloro-2-fluoro-3-methylphenyl)-6-fluoro-1-benzothiophene-2-carboxylic acid] it was 0.46 µM.
Next, `CCCOc1ccc(-c2c(C(=O)O)sc3cc(F)ccc23)c(F)c1F` [Example 39, 3-(2,3-difluoro-4-propoxyphenyl)-6-fluoro-1-benzothiophene-2-carboxylic acid]: greater than 60 µM.
Next, `CC1COc2cc(-c3c(C(=O)O)sc4cc(F)ccc34)ccc2C1` (stereo not drawn) [Example 40, 6-fluoro-3-(3-methyl-3,4-dihydro-2H-1-benzopyran-7-yl)-1-benzothiophene-2-carboxylic acid]: greater than 54 µM; `O=C(O)c1sc2cc(F)ccc2c1-c1c(F)cccc1F` [Example 48, 3-(2,6-difluorophenyl)-6-fluoro-1-benzothiophene-2-carboxylic acid]: 12 µM.
For the compound `COc1c(C#N)ccc(-c2c(C(=O)O)sc3cc(F)ccc23)c1F` [Example 49, 3-(4-cyano-2-fluoro-3-methoxyphenyl)-6-fluoro-1-benzothiophene-2-carboxylic acid], the half-inhibitory concentration (IC50) came out at 7.5 µM.
As to `CCOc1c(Cl)ccc(-c2c(C(=O)O)sc3cc(F)ccc23)c1F` [Example 51, 3-(4-chloro-3-ethoxy-2-fluorophenyl)-6-fluoro-1-benzothiophene-2-carboxylic acid], the IC50 stood at 12 µM.
In the case of `COc1c(Cl)cc(F)c(-c2c(C(=O)O)sc3cc(F)ccc23)c1F` [Example 52, 3-(4-chloro-2,6-difluoro-3-methoxyphenyl)-6-fluoro-1-benzothiophene-2-carboxylic acid] it was 0.064 µM; in that of `COCc1c(F)c(F)cc(-c2c(C(=O)O)sc3cc(F)ccc23)c1F` [Example 53, 6-fluoro-3-[2,4,5-trifluoro-3-(methoxymethyl)phenyl]-1-benzothiophene-2-carboxylic acid], 4.2 µM.
In the case of `COc1ccc(F)c(-c2c(C(=O)O)sc3cc(F)ccc23)c1F` [Example 55, 3-(2,6-difluoro-3-methoxyphenyl)-6-fluoro-1-benzothiophene-2-carboxylic acid] it was 1.1 µM; in that of `O=C(O)c1sc2cc(F)ccc2c1-c1c(F)cc(Cl)cc1F` [Example 59, 3-(4-chloro-2,6-difluorophenyl)-6-fluoro-1-benzothiophene-2-carboxylic acid], greater than 60 µM; in that of `O=C(O)c1sc2cc(F)ccc2c1-c1c(F)cc(F)cc1F` [Example 60, 6-fluoro-3-(2,4,6-trifluorophenyl)-1-benzothiophene-2-carboxylic acid], 2.9 µM.
Next, `COc1ncc(F)c(-c2c(C(=O)O)sc3cc(F)ccc23)c1F` [Example 61, 3-(3,5-difluoro-2-methoxypyridin-4-yl)-6-fluoro-1-benzothiophene-2-carboxylic acid]: 2.1 µM.
With `COc1c(F)cc(F)c(-c2c(C(=O)O)sc3cc(Cl)ccc23)c1F` [Example 63, 6-chloro-3-(2,4,6-trifluoro-3-methoxyphenyl)-1-benzothiophene-2-carboxylic acid], the IC50 was 0.071 µM.
In the case of `O=C(O)c1sc2cc(F)ccc2c1-c1ccc(Cl)cc1F` [Example 64, 3-(4-chloro-2-fluorophenyl)-6-fluoro-1-benzothiophene-2-carboxylic acid] it was 11 µM; in that of `O=C(O)c1sc2cc(F)ccc2c1-c1ccc(Cl)c(F)c1F` [Example 65, 3-(4-chloro-2,3-difluorophenyl)-6-fluoro-1-benzothiophene-2-carboxylic acid], 1.8 µM; in that of `O=C(O)c1sc2cc(F)ccc2c1-c1ccc2c(c1F)OCCC2` [Example 66, 6-fluoro-3-(8-fluoro-3,4-dihydro-2H-1-benzopyran-7-yl)-1-benzothiophene-2-carboxylic acid], 3.8 µM.
In the case of `CC1CCc2cc(-c3c(C(=O)O)sc4cc(F)ccc34)c(F)cc2O1` (stereo not drawn) [Example 67, 6-fluoro-3-(7-fluoro-2-methyl-3,4-dihydro-2H-1-benzopyran-6-yl)-1-benzothiophene-2-carboxylic acid] it was 5.1 µM; in that of `CC1CCc2cc(-c3c(C(=O)O)sc4cc(F)ccc34)cc(F)c2O1` (stereo not drawn) [Example 71, 6-fluoro-3-(8-fluoro-2-methyl-3,4-dihydro-2H-1-benzopyran-6-yl)-1-benzothiophene-2-carboxylic acid], 4.5 µM; in that of `O=C(O)c1sc2cc(Cl)ccc2c1-c1ccccc1` [Example 74, 6-chloro-3-phenyl-1-benzothiophene-2-carboxylic acid], greater than 60 µM.
For the compound `COc1c(C#N)cc(F)c(-c2c(C(=O)O)sc3cc(F)ccc23)c1F` [Example 75, 3-(4-cyano-2,6-difluoro-3-methoxyphenyl)-6-fluoro-1-benzothiophene-2-carboxylic acid], the IC50 is greater than 60 µM.
In the case of `CC1CCc2c(ccc(-c3c(C(=O)O)sc4cc(F)ccc34)c2F)O1` (stereo not drawn) [Example 76, 6-fluoro-3-(5-fluoro-2-methyl-3,4-dihydro-2H-1-benzopyran-6-yl)-1-benzothiophene-2-carboxylic acid] it was 3.6 µM.
Regarding `COc1c(Cl)ccc(-c2c(C(=O)O)sc3cc(F)ccc23)c1F` [Example 79, 3-(4-chloro-2-fluoro-3-methoxyphenyl)-6-fluoro-1-benzothiophene-2-carboxylic acid], the IC50 came out at 0.23 µM.
Next, `CC1CCc2c(cc(F)c(-c3c(C(=O)O)sc4cc(Cl)ccc34)c2F)O1` (stereo not drawn) [Example 80, 6-chloro-3-(5,7-difluoro-2-methyl-3,4-dihydro-2H-1-benzopyran-6-yl)-1-benzothiophene-2-carboxylic acid]: 4 µM.
On to `CCc1c(F)ccc(-c2c(C(=O)O)sc3cc(F)ccc23)c1F` [Example 86, 3-(3-ethyl-2,4-difluorophenyl)-6-fluoro-1-benzothiophene-2-carboxylic acid], for which the IC50 came out at 0.31 µM.
Next, `CCOc1ccc(F)c(-c2c(C(=O)O)sc3cc(F)ccc23)c1F` [Example 93, 3-(3-ethoxy-2,6-difluorophenyl)-6-fluoro-1-benzothiophene-2-carboxylic acid]: 17 µM; `Cc1cc(-c2c(C(=O)O)sc3cc(F)ccc23)c(F)cc1F` [Example 95, 3-(2,4-difluoro-5-methylphenyl)-6-fluoro-1-benzothiophene-2-carboxylic acid]: 1 µM.
In the case of `O=C(O)c1sc2cc(F)ccc2c1-c1c(F)ccc(Cl)c1F` [Example 97, 3-(3-chloro-2,6-difluorophenyl)-6-fluoro-1-benzothiophene-2-carboxylic acid] it was 0.54 µM; in that of `Cc1cc(-c2c(C(=O)O)sc3cc(F)ccc23)c(F)cc1Cl` [Example 106, 3-(4-chloro-2-fluoro-5-methylphenyl)-6-fluoro-1-benzothiophene-2-carboxylic acid], 0.48 µM.
In the case of `O=C(O)c1sc2cc(F)ccc2c1-c1c(F)cncc1F` [Example 107, ammonium 3-(3,5-difluoropyridin-4-yl)-6-fluoro-1-benzothiophene-2-carboxylate] it was 8.6 µM.
